Measured values as given in patent US10472344B2, “Factor XIa inhibitors” (MERCK SHARP & DOHME CORP., priority 2015, dated 2019).

Experiments:
[1] = target: purified human Factor XIa (Homo sapiens (Human), UniProt P03951); assay: Factor XIa Assay; format: biochemical; conditions: fluorogenic substrate Z-Gly-Pro-Arg-AFC, 40 pM enzyme, pH 7.4; read-out: Human FXIa Ki
Description: (§1) The effectiveness of a compound of the present invention as an inhibitor of Coagulation Factor XIa can be determined using a relevant purified serine protease, and an appropriate synthetic substrate. The rate of hydrolysis of the chromogenic or fluorogenic substrate by the relevant serine protease was measured both in the absence and presence of compounds of the present invention. Assays were conducted at room temperature or at 37° C. […] A decrease in the rate of fluorescence change in the presence of inhibitor is indicative of enzyme inhibition. Such methods are known to one skilled in the art. The results of this assay are expressed as the inhibitory constant, Ki.
Factor XIa determinations were made in 50 mM HEPES buffer at pH 7.4 containing 150 mM NaCl, 5 mM CaCl2, and 0.1% PEG 8000 (polyethylene glycol; JT Baker or Fisher Scientific). Determinations were made using purified human Factor XIa at a final concentration of 40 pM (Sekisui Diagnostics) and he synthetic substrate, Z-Gly-Pro-Arg-AFC, TFA salt (Sigma #C0980) at a concentration of […].
Activity assays were performed by diluting a stock solution of substrate at least tenfold to a final concentration ≤0.1 Km into a solution containing enzyme or enzyme equilibrated with inhibitor. Times required to achieve equilibration between enzyme and inhibitor were determined in control experiments. Initial velocities of product formation in the absence (V0) or presence of inhibitor (V1) were measured. Assuming competitive inhibition, and that unity is negligible compared Km/[S], [I]/e, and [I]/e (where [S], [I], and e respectively represent the total concentrations, of substrate, inhibitor and enzyme), the equilibrium constant (Ki) for dissociation of the inhibitor from the enzyme can be obtained from the dependence of V0/Vi on [I] shown in the following equation. V0/Vi=1+[I]/Ki

[2] = target: purified Human plasma kallikrein (Homo sapiens (Human), UniProt P03952); assay: Kallikrein Assay; format: biochemical; conditions: fluorogenic substrate Acetyl-K-P-R-AFC, 0.5 nM enzyme, pH 7.4; Ki from IC50 by Cheng Prusoff
Description: as §1, with “Kallikrein” for “Coagulation Factor XIa”
Kallikrein determinations were made in 50 mM HEPES buffer at pH 7.4 containing 150 mM NaCl, 5 mM CaCl2, and 0.1% PEG 8000 (polyethylene glycol; Fisher Scientific). Determinations were made using purified Human plasma kallikrein at a final concentration of 0.5 nM (Enzyme Research Laboratories) and the synthetic substrate, Acetyl-K-P-R-AFC (Sigma #C6608) at a concentration of […].
Activity assays were performed by diluting a stock solution of substrate at least tenfold to a final concentration≤0.2 Km into a solution containing enzyme or enzyme equilibrated with inhibitor. Times required to achieve equilibration between enzyme and inhibitor were determined in control experiments. The reactions were performed under linear progress curve conditions and fluorescence increase measured at 405 Ex/510 Em nm. Values were converted to percent inhibition of the control reaction (after subtracting 100% Inhibition value). IC50 was determined by inflection point from a four parameter logistic curve fit. Ki was calculated using the Cheng Prusoff equation, Ki=IC50/(1+([S]/Km)).

Chain of purified Human plasma kallikrein (P03952 391-638): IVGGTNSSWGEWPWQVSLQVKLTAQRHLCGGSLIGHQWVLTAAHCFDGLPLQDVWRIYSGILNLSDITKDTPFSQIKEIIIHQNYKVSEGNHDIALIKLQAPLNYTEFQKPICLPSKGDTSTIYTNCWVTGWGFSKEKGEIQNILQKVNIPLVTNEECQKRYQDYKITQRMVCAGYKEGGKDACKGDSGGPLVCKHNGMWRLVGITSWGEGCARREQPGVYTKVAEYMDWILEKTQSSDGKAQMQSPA
Chain of purified Human plasma kallikrein (P03952 20-390 partner): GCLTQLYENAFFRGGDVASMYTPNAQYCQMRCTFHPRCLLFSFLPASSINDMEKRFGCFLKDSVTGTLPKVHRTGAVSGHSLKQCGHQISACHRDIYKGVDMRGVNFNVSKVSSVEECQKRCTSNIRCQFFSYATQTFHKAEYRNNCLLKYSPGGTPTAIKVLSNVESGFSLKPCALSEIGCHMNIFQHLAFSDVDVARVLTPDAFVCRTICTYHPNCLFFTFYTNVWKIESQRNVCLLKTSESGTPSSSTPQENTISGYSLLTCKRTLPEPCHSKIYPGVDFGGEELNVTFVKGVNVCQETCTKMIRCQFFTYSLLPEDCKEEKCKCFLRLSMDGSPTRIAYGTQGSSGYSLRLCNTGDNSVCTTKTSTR
Chain of purified human Factor XIa (P03951 388-625): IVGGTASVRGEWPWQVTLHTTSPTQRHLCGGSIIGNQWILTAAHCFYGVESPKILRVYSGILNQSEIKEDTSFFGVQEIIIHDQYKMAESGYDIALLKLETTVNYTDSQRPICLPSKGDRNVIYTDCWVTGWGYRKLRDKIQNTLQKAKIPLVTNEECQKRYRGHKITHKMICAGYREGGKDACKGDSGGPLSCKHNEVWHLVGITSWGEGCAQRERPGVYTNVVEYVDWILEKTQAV
Chain of purified human Factor XIa (P03951 19-387 partner): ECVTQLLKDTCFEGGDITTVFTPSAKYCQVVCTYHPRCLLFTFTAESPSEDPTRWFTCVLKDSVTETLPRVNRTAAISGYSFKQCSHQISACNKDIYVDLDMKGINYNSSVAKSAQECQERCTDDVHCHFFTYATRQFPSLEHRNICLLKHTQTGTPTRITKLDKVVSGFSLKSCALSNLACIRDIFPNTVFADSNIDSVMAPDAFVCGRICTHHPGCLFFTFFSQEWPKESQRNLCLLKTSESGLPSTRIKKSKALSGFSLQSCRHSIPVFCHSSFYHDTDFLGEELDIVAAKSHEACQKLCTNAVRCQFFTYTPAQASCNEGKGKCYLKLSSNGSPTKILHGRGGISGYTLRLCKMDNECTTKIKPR

Compound | Ki [1] [nM] | Ki [2] [nM]
O=C(O)c1ccc(C(=O)NC(Cc2ccccc2)c2ccc(-c3cc(Cl)ccc3-n3cnnn3)c[n+]2[O-])cc1 (stereo not drawn) [Example 5] | 83 | 
Nc1n[nH]c2cc(C(=O)N[C@@H](Cc3ccccc3)c3ccc(-c4cc(Cl)ccc4-n4cnnn4)c[n+]3[O-])ccc12 [Example 1, (S)-2-(1-(3-AMMONIO-1H-INDAZOLE-6-CARBOXAMIDO)-2-PHENYLETHYL)-5-(5-CHLORO-2-(1H-TETRAZOL-1-YL)PHENYL)PYRIDINE 1-OXIDE 2,2,2-TRIFLUOROACETATE] | 0.9 | 25
COC(=O)Nc1cccc(C(=O)NC(Cc2ccccc2)c2ccc(-c3cc(Cl)ccc3-n3cnnn3)c[n+]2[O-])c1 (stereo not drawn) [Example 3] | 144 | 
COCC(=O)Nc1ccc(C(=O)N[C@@H](Cc2ccccc2)c2ccc(-c3cc(Cl)ccc3-n3cnnn3)c[n+]2[O-])cc1 [Example 7] | 20 | 516
COC(=O)Nc1ccc(C(=O)N[C@@H](Cc2ccccc2)c2ccc(-c3cc(Cl)ccc3-n3cnnn3)c[n+]2[O-])cc1 [Example 2, (S)-5-(5-chloro-2-(1H-tetrazol-1-yl)phenyl)-2-(1-(4-((methoxycarbonyl)amino)benzamido)-2-phenylethyl)pyridine 1-oxide] | 3.6 | 105

The next lines start with the values.

Ki [1] [nM] | Ki [2] [nM] | Compound
6.9 | 219 | O=C(O)c1ccc(C(=O)N[C@@H](Cc2ccccc2)c2ccc(-c3cc(Cl)ccc3-n3cnnn3)c[n+]2[O-])s1 [Example 6]
1.3 | 36 | NC(=O)c1ccc(C(=O)N[C@@H](Cc2ccccc2)c2ccc(-c3cc(Cl)ccc3-n3cnnn3)c[n+]2[O-])s1 [Example 4]
